Reference: patent US11191767B2, “Pharmaceutical composition for stimulating stem cell division and suppressing bacterial virulence” (priority 2017, dated 2021)
Where two headings read alike, the source gives them in different places.

Tests used:
[1] = test system: P. Aeruginosa strains; assay: Antibiotic disc diffusion on Müller-Hinton agar with or without FCCD; format: cell-based, Pseudomonas aeruginosa; details: for sensitivity of bacteria to antibiotic disc (in words): discs added with additional passages, FCCD medium
Description: The studies are carried out in vitro by diffusion method on P. Aeruginosa strains indicated in previous experiments. Two rows of plates containing Müller-Hinton agar were prepared in parallel, with a 0.01-0.005% FCCD solution added to the second-row plates. After that, bacteria of the studied strains from a suspension containing 10^8 […] are inoculated on the surface of the agar. To do this, prepare a bacterial suspension corresponding to a concentration of 10^9 […] according to the optic turbidity standard of 10 units diluted with physiological salt solution 10 times (up to 10^8 μl/m1). […] Inoculations on plates with FCCD-free medium are used as controls, as well as media on which discs are not applied. Inoculations are incubated for 48 hours at 37° C. in one passage, then re-inoculation is carried out under similar conditions for the following passages. A total of 4 passages were carried out with controls. The results are taken into account by the diameter of the bacteria inhibition zones. On FCCD-free medium, there are no inhibition zones (an indicator of antibiotic resistance of bacteria), whereas on a medium containing 0.005-0.01% FCCD, a zone of bacterial growth inhibition from 25 to 40 mm in diameter forms around discs (appearance of sensitivity to antibiotic).
Growth inhibition zones were not observed for antibiotics Pseudomonas aeruginosa has genetically determined (initial) antibiotic resistance.

[2] = test system: P. aeruginosa IMI-2016; assay: MIC of antibiotics by serial dilution with or without FCCD; format: cell-based
Description: The study is carried out on P. aeruginosa strains given in the previous examples by in vitro serial dilution method using FCCD. Evaluate the decrease in resistance of Pseudomonas aeruginosa strains to amikacin and polymyxin. Prepare two rows of plates with Müller-Hinton nutrient medium: the first row contains various concentrations of the studied antibiotic (amikacin and polymyxin)—31, 62, 125, 250, 500 μg/ml of medium (double dilution). At the same time, prepare the same row of plates, but add FCCD additionally into the medium at a concentration of (0.0001-0.001) %. Inoculate 0.05 ml (drop) of each test strain on the plates from a bacterial suspension containing 10^8 […] according to the optic turbidity standard of 10 units. Müller-Hinton medium without antibiotic and Müller-Hinton medium containing 0.0001% of FCCD without antibiotic are used as controls. Inoculations are incubated at 37° C. for 48 hours. The results are considered by the value of MIC (minimum inhibitory concentration) with the obligatory growth of bacteria on control plates (see table 12).

[3] = test system: A. baumannii IMI-2016; assay: as above; format: cell-based
[4] = test system: K. pneumoniae IMI-2016; assay: as above; format: cell-based
[5] = Pseudomonas aeruginosa, IMI2016, Control (without FCCD), read-out: MIC
[6] = Pseudomonas aeruginosa, IMI2016, with FCCD 0.001 % (first FCCD line), read-out: MIC
[7] = Pseudomonas aeruginosa, IMI2016, with FCCD 0.001 % (second FCCD line), read-out: MIC
[8] = Acinetobacter baumannii, IMI2016, Control (without FCCD), read-out: MIC
[9] = Acinetobacter baumannii, IMI2016, with FCCD 0.001 % (first FCCD line), read-out: MIC
[10] = Acinetobacter baumannii, IMI2016, with FCCD 0.001 % (second FCCD line), read-out: MIC
[11] = Klebsiella pneumoniae, IMI2016, Control (without FCCD), read-out: MIC
[12] = Klebsiella pneumoniae, IMI2016, with FCCD 0,001 % (first FCCD line), read-out: MIC
[13] = Klebsiella pneumoniae, IMI2016, with FCCD 0,001 % (second FCCD line), read-out: MIC
[14] = with FCCD 0.001 % (first FCCD line)
[15] = with FCCD 0.001 % (second FCCD line)
[16] = with FCCD 0,001 % (first FCCD line)
[17] = with FCCD 0,001 % (second FCCD line)

Cc1nnc(SCC2=C(C(=O)O)N3C(=O)[C@@H](NC(=O)Cn4cnnn4)[C@H]3SC2)s1 [cefazolin]
sensitivity of bacteria to antibiotic disc (in words) [1]: did not appear sensitive

NCC[C@H](O)C(=O)N[C@@H]1C[C@H](N)[C@@H](O[C@H]2O[C@H](CN)[C@@H](O)[C@H](O)[C@H]2O)[C@H](O)[C@H]1O[C@H]1O[C@H](CO)[C@@H](O)[C@H](N)[C@H]1O [Amikacin]
zone of bacterial growth inhibition around disc (in words) ([1]; FCCD-free medium): no zone of bacterial growth inhibition
zone of bacterial growth inhibition around disc (in words) ([1]; medium with (0.005-0.01)% FCCD): zone of bacterial growth inhibition appears
increase of sensitivity to antibiotic under FCCD ([2]; Pseudomonas aeruginosa): 33 times
MIC [2, 5]: > 500 µg/mL
MIC [2, 6]: 15 µg/mL
MIC [2, 7]: 125 µg/mL
MIC [3, 8]: > 500 µg/mL
MIC [3, 9]: 15 µg/mL
MIC [3, 10]: 125 µg/mL
MIC [4, 11]: > 500 µg/mL
MIC [4, 12]: 31 µg/mL
MIC [4, 13]: 62 µg/mL

CO/N=C(\C(=O)N[C@@H]1C(=O)N2C(C(=O)O)=C(CSc3nc(=O)c(=O)[nH]n3C)CS[C@H]12)c1csc(N)n1 [Ceftriaxone]
MIC [2, 5]: > 500 µg/mL
MIC [2, 6]: 250 µg/mL
MIC [2, 7]: 500 µg/mL
MIC [3, 8]: > 500 µg/mL
MIC [3, 9]: 250 µg/mL
MIC [3, 10]: 125 µg/mL
MIC [4, 11]: > 500 µg/mL
MIC [4, 12]: 125 µg/mL
MIC [4, 13]: 250 µg/mL

Polymyxin
zone of bacterial growth inhibition around disc (in words) ([1]; FCCD-free medium): no zone of bacterial growth inhibition
zone of bacterial growth inhibition around disc (in words) ([1]; medium with (0.005-0.01)% FCCD): zone of bacterial growth inhibition appears
MIC ([2]; Control (without FCCD)): 250 µg/mL
increase of sensitivity to antibiotic under FCCD ([2]; Pseudomonas aeruginosa): 16 times
MIC [2, 14]: 31 µg/mL
MIC [2, 15]: 125 µg/mL
MIC ([3]; Control (without FCCD)): >500 µg/mL
MIC [3, 14]: 31 µg/mL
MIC [3, 15]: 62 µg/mL
MIC ([4]; Control (without FCCD)): >500 µg/mL
MIC [4, 16]: 62 µg/mL
MIC [4, 17]: 125 µg/mL

C[C@H]1COc2c(N3CCN(C)CC3)c(F)cc3c(=O)c(C(=O)O)cn1c23 [Levofloxacin]
MIC [2, 5]: > 500 µg/mL
MIC [2, 6]: 125 µg/mL
MIC [2, 7]: 250 µg/mL
MIC [3, 8]: > 500 µg/mL
MIC [3, 9]: 125 µg/mL
MIC [3, 10]: 62 µg/mL
MIC [4, 11]: > 500 µg/mL
MIC [4, 12]: 125 µg/mL
MIC [4, 13]: 250 µg/mL

CC1(C)S[C@@H]2[C@H](NC(=O)[C@H](N)c3ccc(O)cc3)C(=O)N2[C@H]1C(=O)O [amoxicillin]
sensitivity of bacteria to antibiotic disc (in words) [1]: did not appear sensitive

C[C@@H](O)[C@H]1C(=O)N2C(C(=O)O)=C(SCCN=CN)C[C@H]12 [Imipinem]
MIC ([2]; Control (without FCCD)): >500 µg/mL
MIC [2, 14]: 250 µg/mL
MIC [2, 15]: 125 µg/mL
MIC ([3]; Control (without FCCD)): >500 µg/mL
MIC [3, 14]: 250 µg/mL
MIC [3, 15]: 31 µg/mL
MIC ([4]; Control (without FCCD)): >500 µg/mL
MIC [4, 16]: 250 µg/mL
MIC [4, 17]: 125 µg/mL
